From ChEMBL document CHEMBL1201862, “PubChem BioAssay data set” (2004)
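These data come from cells grown in 96-well plates and exposed to compound for 48 hours at five concentrations. GI50 is the concentration that inhibits growth by half.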 Active and inactive are the calls of the source. No stated cut-off is given here; in the data, active = GI50 up to about 1.1 µM and inactive = higher.

Columns and labels:
Assay in all cases: NCI-60 cell line screen, 48 h
OVCAR-8 = test system: OVCAR-8
HCT-116 = test system: HCT-116
SR = test system: SR
NCI/ADR-RES = test system: NCI/ADR-RES
ACHN = test system: ACHN
Malme-3M = test system: Malme-3M
HL-60 = test system: HL-60
MCF7 = test system: MCF7
786-0 = test system: 786-0
CAKI-1 = test system: CAKI-1
LOX IMVI = test system: LOX IMVI
UACC-62 = test system: UACC-62
SF-268 = test system: SF-268
Hs-578T = test system: Hs-578T
UO-31 = test system: UO-31
SK-MEL-28 = test system: SK-MEL-28
RPMI-8226 = test system: RPMI-8226
MDA-MB-231 = test system: MDA-MB-231
T47D = test system: T47D
SF-539 = test system: SF-539
SNB-19 = test system: SNB-19
NCI-H460 = test system: NCI-H460
U-251 = test system: U-251
UACC-257 = test system: UACC-257
HT-29 = test system: HT-29
RXF 393 = test system: RXF 393
EKVX = test system: EKVX
NCI-H23 = test system: NCI-H23
NCI-H226 = test system: NCI-H226
TK-10 = test system: TK-10
IGROV-1 = test system: IGROV-1
M14 = test system: M14
SNB-75 = test system: SNB-75
CCRF-CEM = test system: CCRF-CEM
OVCAR-3 = test system: OVCAR-3
A549 = test system: A549
SK-MEL-5 = test system: SK-MEL-5
OVCAR-5 = test system: OVCAR-5
SN12C = test system: SN12C
MDA-N = test system: MDA-N
KM12 = test system: KM12
NCI-H522 = test system: NCI-H522
SF-295 = test system: SF-295
OVCAR-4 = test system: OVCAR-4
HCC 2998 = test system: HCC 2998
HOP-62 = test system: HOP-62
SW-620 = test system: SW-620
HOP-92 = test system: HOP-92
MOLT-4 = test system: MOLT-4
PC-3 = test system: PC-3
COLO 205 = test system: COLO 205
A498 = test system: A498
SK-MEL-2 = test system: SK-MEL-2
SK-OV-3 = test system: SK-OV-3
MDA-MB-435 = test system: MDA-MB-435
BT-549 = test system: BT-549
HCT-15 = test system: HCT-15
DU-145 = test system: DU-145
K562 = test system: K562

SMILES: CC(=O)NNc1nc(C)c(C(/C=C/c2ccc(NC(C)=O)cc2)=N/NS(=O)(=O)c2ccc(C)cc2)s1
- GI50 (OVCAR-8): > 100 µM (inactive)
- GI50 (HCT-116): > 100 µM (inactive)
- GI50 (SR): > 100 µM (inactive)
- GI50 (NCI/ADR-RES): > 100 µM (inactive)
- GI50 (ACHN): > 100 µM (inactive)
- GI50 (Malme-3M): > 100 µM (inactive)
- GI50 (HL-60): > 100 µM (inactive)
- GI50 (MCF7): > 100 µM (inactive)
- GI50 (786-0): > 100 µM (inactive)
- GI50 (CAKI-1): > 100 µM (inactive)
- GI50 (LOX IMVI): > 100 µM (inactive)
- GI50 (UACC-62): > 100 µM (inactive)
- GI50 (SF-268): > 100 µM (inactive)
- GI50 (Hs-578T): > 100 µM (inactive)
- GI50 (UO-31): > 100 µM (inactive)
- GI50 (SK-MEL-28): > 100 µM (inactive)
- GI50 (RPMI-8226): > 100 µM (inactive)
- GI50 (MDA-MB-231): > 100 µM (inactive)
- GI50 (T47D): > 100 µM (inactive)
- GI50 (SF-539): > 100 µM (inactive)
- GI50 (SNB-19): > 100 µM (inactive)
- GI50 (NCI-H460): > 100 µM (inactive)
- GI50 (U-251): > 100 µM (inactive)
- GI50 (UACC-257): > 100 µM (inactive)
- GI50 (HT-29): > 100 µM (inactive)
- GI50 (RXF 393): > 100 µM (inactive)
- GI50 (EKVX): > 100 µM (inactive)
- GI50 (NCI-H23): > 100 µM (inactive)
- GI50 (NCI-H226): > 100 µM (inactive)
- GI50 (TK-10): > 100 µM (inactive)
- GI50 (IGROV-1): > 100 µM (inactive)
- GI50 (M14): > 100 µM (inactive)
- GI50 (SNB-75): > 100 µM (inactive)
- GI50 (CCRF-CEM): > 100 µM (inactive)
- GI50 (OVCAR-3): > 100 µM (inactive)
- GI50 (A549): > 100 µM (inactive)
- GI50 (SK-MEL-5): > 100 µM (inactive)
- GI50 (OVCAR-5): > 100 µM (inactive)
- GI50 (SN12C): > 100 µM (inactive)
- GI50 (MDA-N): > 100 µM (inactive)
- GI50 (KM12): > 100 µM (inactive)
- GI50 (NCI-H522): > 100 µM (inactive)
- GI50 (SF-295): 27.9 µM (inactive)
- GI50 (OVCAR-4): > 100 µM (inactive)
- GI50 (HCC 2998): > 100 µM (inactive)
- GI50 (HOP-62): > 100 µM (inactive)
- GI50 (SW-620): > 100 µM (inactive)
- GI50 (HOP-92): > 100 µM (inactive)
- GI50 (MOLT-4): > 100 µM (inactive)
- GI50 (PC-3): > 100 µM (inactive)
- GI50 (COLO 205): > 100 µM (inactive)
- GI50 (A498): > 100 µM (inactive)
- GI50 (SK-MEL-2): > 100 µM (inactive)
- GI50 (SK-OV-3): > 100 µM (inactive)
- GI50 (MDA-MB-435): > 100 µM (inactive)
- GI50 (BT-549): > 100 µM (inactive)
- GI50 (HCT-15): > 100 µM
- GI50 (DU-145): > 100 µM (inactive)

SMILES: Cc1ccc(C(=O)CCl)o1
- GI50 (OVCAR-8): > 4.5 µM (inactive)
- GI50 (HCT-116): 1.86 µM (inactive)
- GI50 (SR): 3.07 µM (inactive)
- GI50 (NCI/ADR-RES): > 10 µM (inactive)
- GI50 (ACHN): > 10 µM (inactive)
- GI50 (Malme-3M): 3.18 µM (inactive)
- GI50 (HL-60): 2.11 µM (inactive)
- GI50 (MCF7): 3.52 µM (inactive)
- GI50 (786-0): 4.28 µM (inactive)
- GI50 (CAKI-1): 3.12 µM (inactive)
- GI50 (LOX IMVI): 2.98 µM (inactive)
- GI50 (UACC-62): > 7.91 µM (inactive)
- GI50 (SF-268): > 6.97 µM (inactive)
- GI50 (Hs-578T): > 10 µM (inactive)
- GI50 (UO-31): > 4.67 µM (inactive)
- GI50 (SK-MEL-28): > 10 µM (inactive)
- GI50 (RPMI-8226): 2.33 µM (inactive)
- GI50 (MDA-MB-231): > 7.31 µM (inactive)
- GI50 (T47D): 4.61 µM (inactive)
- GI50 (SF-539): 4.15 µM (inactive)
- GI50 (SNB-19): > 10 µM (inactive)
- GI50 (NCI-H460): > 10 µM (inactive)
- GI50 (U-251): > 10 µM (inactive)
- GI50 (UACC-257): > 9.2 µM (inactive)
- GI50 (HT-29): 4.71 µM (inactive)
- GI50 (RXF 393): > 9.31 µM (inactive)
- GI50 (EKVX): > 10 µM (inactive)
- GI50 (NCI-H23): 5.37 µM (inactive)
- GI50 (NCI-H226): > 10 µM (inactive)
- GI50 (TK-10): 6.9 µM (inactive)
- GI50 (IGROV-1): > 9.68 µM (inactive)
- GI50 (M14): 3.86 µM (inactive)
- GI50 (SNB-75): > 9.46 µM (inactive)
- GI50 (CCRF-CEM): 2.39 µM (inactive)
- GI50 (OVCAR-3): > 7.23 µM (inactive)
- GI50 (A549): > 10 µM (inactive)
- GI50 (SK-MEL-5): > 7.96 µM (inactive)
- GI50 (OVCAR-5): > 5.6 µM (inactive)
- GI50 (SN12C): 3.69 µM (inactive)
- GI50 (MDA-N): > 7.08 µM (inactive)
- GI50 (KM12): > 10 µM (inactive)
- GI50 (NCI-H522): 2.92 µM (inactive)
- GI50 (SF-295): > 10 µM (inactive)
- GI50 (OVCAR-4): 4.15 µM (inactive)
- GI50 (HCC 2998): > 10 µM (inactive)
- GI50 (HOP-62): > 10 µM (inactive)
- GI50 (SW-620): 2.3 µM (inactive)
- GI50 (HOP-92): > 10 µM (inactive)
- GI50 (MOLT-4): 2.13 µM (inactive)
- GI50 (PC-3): > 10 µM (inactive)
- GI50 (COLO 205): 3.01 µM (inactive)
- GI50 (A498): > 10 µM (inactive)
- GI50 (SK-MEL-2): > 10 µM (inactive)
- GI50 (SK-OV-3): > 10 µM (inactive)
- GI50 (MDA-MB-435): 3.25 µM (inactive)
- GI50 (BT-549): 5.3 µM (inactive)
- GI50 (HCT-15): 4.93 µM
- GI50 (K562): 3.93 µM (inactive)
- GI50 (DU-145): > 10 µM (inactive)
